target: T1, MAGE-A11:PCF11 interaction (GST-MAGE-A11 and FAM-PCF11_4) (Homo sapiens, UniProt P43364); experiment: TR-FRET primary / single point screen at 15 µM; format: binding; settings: single point TR-FRET screening of 797 quinoline compounds against MAGE-A11:PCF11
T1 construct: GST-MAGE-A11 MHD (human MAGE-A11 MHD amino acid 218-429); made in house; host or cells: E. coli BL21(DE3)
T1 sequence (P43364 218-429): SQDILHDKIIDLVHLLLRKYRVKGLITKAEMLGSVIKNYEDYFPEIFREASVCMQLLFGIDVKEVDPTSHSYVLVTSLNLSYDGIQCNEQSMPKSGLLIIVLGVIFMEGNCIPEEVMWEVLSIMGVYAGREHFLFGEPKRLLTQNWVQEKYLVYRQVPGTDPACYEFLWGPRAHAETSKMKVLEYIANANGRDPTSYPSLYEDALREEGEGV
Method in brief: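 TR-FRET 520/490 nm emission ratio was read after 90 min at room temperature. Wells held 5 nM GST-MAGE-A11, 5 nM Tb-anti-GST, 200 nM FAM-PCF11_4 and 15 µM compound in Tris pH 7.5 buffer with MgCl2, BSA and DTT. %Inhibition was scaled to DMSO and minus-MAGE-A11 controls.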

In order of rising “percent inhibition (TR-FRET)” value:
1. COc1ccc2nc3cc(Cl)ccc3c(NCCCNCc3ccoc3)c2c1 [SJ000520916]  -299.405
2. COc1ccc2nc3cc(Cl)ccc3c(NCCCNCc3c(F)cccc3OC)c2c1 [SJ000520915]  -298.775
3. CCCN(CCC)CCCNc1c2ccc(Cl)cc2nc2ccc(OC)cc12 [SJ000520917]  -288.202
4. CCCN(CCCNc1c2ccc(Cl)cc2nc2ccc(OC)cc12)Cc1ccc[nH]1 [SJ000520923]  -271.048
5. CCCN(CCCNc1c2ccc(Cl)cc2nc2ccc(OC)cc12)Cc1ccsc1 [SJ000520922]  -258.026
6. COc1ccc2nc3cc(Cl)ccc3c(NCCCNCc3ccc4[nH]ccc4c3)c2c1 [SJ000520914]  -184.229
7. CCCN(CCCNc1c2ccc(Cl)cc2nc2ccc(OC)cc12)Cc1cccs1 [SJ000520920]  -164.134
8. CCCN(CCCNc1c2ccc(Cl)cc2nc2ccc(OC)cc12)Cc1cc(OC)ccc1O [SJ000520933]  -150.831
9. CCCN(CCCNc1c2ccc(Cl)cc2nc2ccc(OC)cc12)Cc1ccccn1 [SJ000520919]  -146.21
10. CCCN(CCCNc1c2ccc(Cl)cc2nc2ccc(OC)cc12)Cc1ccc(Br)o1 [SJ000520929]  -137.318
11. CCCN(CCCNc1c2ccc(Cl)cc2nc2ccc(OC)cc12)Cc1ccccc1 [SJ000520925]  -127.926
12. CCCN(CCCNc1c2ccc(Cl)cc2nc2ccc(OC)cc12)Cc1ccc(C)s1 [SJ000520927]  -124.818
13. Cc1csc(CN(CCCCNc2ccnc3cc(Cl)ccc23)Cc2ccccc2)n1 [SJ000520456]  -12.8602
14. FC(F)(F)c1cc(CN(CCCCNc2ccnc3cc(Cl)ccc23)Cc2ccccc2)ccc1Cl [SJ000520466]  25.2787
15. FC(F)(F)c1cccc(CN(CCCCNc2ccnc3cc(Cl)ccc23)Cc2ccccc2)c1 [SJ000520455]  26.3784
16. Fc1cccc(C(F)(F)F)c1CN(CCCCNc1ccnc2cc(Cl)ccc12)Cc1ccccc1 [SJ000520465]  28.7514
17. FC(F)(F)Oc1ccccc1CN(CCCCNc1ccnc2cc(Cl)ccc12)Cc1ccccc1 [SJ000520459]  30.8594
18. FC(F)(F)Oc1cccc(CN(CCCCNc2ccnc3cc(Cl)ccc23)Cc2ccccc2)c1 [SJ000520457]  33.314

same assay, conditions: single point TR-FRET screening of quinoline compounds against MAGE-A11:PCF11; 15 µM

In order of falling “percent inhibition (TR-FRET)” value:
1. CCCN(CCCNc1ccnc2cc(C(F)(F)F)ccc12)CCC(C)(C)C [SJ000520476]  32.3298
2. Cc1ccc(F)cc1CN(CCCNc1ccnc2cc(Cl)ccc12)Cc1ccccc1 [SJ000520458]  29.7727
3. Clc1ccc2c(NCCCN(Cc3ccccc3)Cc3csc4ccccc34)ccnc2c1 [SJ000520454]  28.1386
4. FC(F)(F)Oc1cccc(CN(CCCNc2ccnc3cc(Cl)ccc23)Cc2ccccc2)c1 [SJ000520464]  27.7788
5. CCCN(CCCNc1ccnc2cc(C(F)(F)F)ccc12)Cc1cn(C)c2ccccc12 [SJ000520469]  25.5382
6. FC(F)(F)Oc1ccc(CN(CCCNc2ccnc3cc(Cl)ccc23)Cc2ccccc2)cc1 [SJ000520460]  25.0481
7. CCCCN(CCC)CCCNc1ccnc2cc(C(F)(F)F)ccc12 [SJ000520477]  23.5778
8. Fc1cccc(C(F)(F)F)c1CN(CCCNc1ccnc2cc(Cl)ccc12)Cc1ccccc1 [SJ000520467]  22.0104
9. CCCN(CCCNc1ccnc2cc(C(F)(F)F)ccc12)Cc1csc2ccccc12 [SJ000520483]  19.4469
10. CCCN(CCCNc1ccnc2cc(C(F)(F)F)ccc12)Cc1ccc(OC(F)(F)F)cc1 [SJ000520474]  17.3802
11. CCCN(CCCNc1ccnc2cc(C(F)(F)F)ccc12)Cc1c[nH]c2ccccc12 [SJ000520468]  16.1561
12. CCCN(CCCNc1ccnc2cc(C(F)(F)F)ccc12)Cc1cc(F)ccc1OC [SJ000520475]  15.746
13. CCCN(CCCNc1ccnc2cc(C(F)(F)F)ccc12)Cc1cccc2c1OCO2 [SJ000520472]  14.6158
14. CCCN(CCCNc1c2ccc(Cl)cc2nc2ccc(OC)cc12)Cc1ccccc1C(F)(F)F [SJ000520928]  14.1686
15. CCCN(CCCNc1ccnc2cc(C(F)(F)F)ccc12)Cc1cccc(C(F)(F)F)c1 [SJ000520471]  13.0224
16. CCCN(CCCNc1ccnc2cc(C(F)(F)F)ccc12)Cc1cc2ccccc2s1 [SJ000520482]  13.0054
17. CCCN(CCCNc1ccnc2cc(C(F)(F)F)ccc12)Cc1cc(OC)ccc1F [SJ000520480]  11.9552
18. CCCN(CCCNc1ccnc2cc(C(F)(F)F)ccc12)Cc1c(F)cccc1C(F)(F)F [SJ000520481]  11.4651
19. Clc1ccc2c(NCCCN(Cc3ccccc3)Cc3cccnc3Br)ccnc2c1 [SJ000520462]  9.715
20. CCCN(CCCNc1ccnc2cc(C(F)(F)F)ccc12)Cc1cccc(OC(F)(F)F)c1 [SJ000520473]  9.085
21. CCCN(CCCNc1ccnc2cc(C(F)(F)F)ccc12)Cc1cc(C(F)(F)F)ccc1OC [SJ000520486]  8.188
22. CCCN(CCCNc1ccnc2cc(C(F)(F)F)ccc12)Cc1nc2ccccc2s1 [SJ000520484]  7.404
23. O=[N+]([O-])c1ccc(CNCCCNc2ccnc3cc(Cl)ccc23)s1 [SJ000520912]  6.284
24. CCCN(CCCNc1ccnc2cc(C(F)(F)F)ccc12)Cc1ccccc1OC(F)(F)F [SJ000520470]  5.934
25. Clc1ccc2c(NCCCN(Cc3ccccc3)Cc3cc4ccccc4o3)ccnc2c1 [SJ000520461]  5.6
26. CCCN(CCCNc1ccnc2cc(C(F)(F)F)ccc12)Cc1cc(OC(F)(F)F)ccc1OC [SJ000520485]  5.6
27. CCCN(CCCNc1c2ccc(Cl)cc2nc2ccc(OC)cc12)Cc1cc(F)ccc1OC [SJ000520931]  1.847
28. CCCN(CCCNc1c2ccc(Cl)cc2nc2ccc(OC)cc12)Cc1ccc(C)o1 [SJ000520932]  0.9854
29. CCCN(CCCNc1c2ccc(Cl)cc2nc2ccc(OC)cc12)Cc1ccncc1 [SJ000520918]  -1.797
30. CCCN(CCCNc1ccnc2cc(C(F)(F)F)ccc12)Cc1cc(Br)cs1 [SJ000520478]  -9.243
31. Cc1csc(CN(CCCNc2ccnc3cc(Cl)ccc23)Cc2ccccc2)n1 [SJ000520463]  -10.469
32. Clc1ccc2c(NCCCNCc3ccoc3)ccnc2c1 [SJ000520913]  -11.15
33. CCCN(CCCNc1ccnc2cc(C(F)(F)F)ccc12)Cc1cc2ccccc2o1 [SJ000520479]  -20.4102
34. CCCN(CCCNc1c2ccc(Cl)cc2nc2ccc(OC)cc12)Cc1ccc(Br)s1 [SJ000520924]  -56.4502
35. CCCN(CCCNc1c2ccc(Cl)cc2nc2ccc(OC)cc12)Cc1cccc(OC)c1O [SJ000520930]  -81.9559
36. CCCN(CCCNc1c2ccc(Cl)cc2nc2ccc(OC)cc12)Cc1sccc1C [SJ000520921]  -83.8109
37. CCCN(CCCNc1c2ccc(Cl)cc2nc2ccc(OC)cc12)Cc1ccccc1O [SJ000520926]  -91.8376

Reference: paper PMC7529893, “Structural basis for substrate recognition and chemical inhibition of oncogenic MAGE ubiquitin ligases” (Nature Communications, 2020)
